Results: patent US20060025485A1, “Hydroxybenazamide compounds for treatment of cancer” (priority 2004, published 2006)
Each block holds one compound with its values, some of them ahead of it.

Columns and labels:
[1] = in vitro; conditions: human, BON cells
Method: (§1) Cells tested (H727 and BON) were harvested by trypsinization and plated at a cell density of 3,000 cells/well of each microtiter plate. Cells were grown for 4 hrs at 37° C., with 5% CO2 in a humidified incubator to allow cell attachment to occur before compound addition. […] 10 μl of each compound stock was added to duplicate microtiter plates for each cell line. The final concentration of DMSO in all wells was 1%. To test 200 μM, 2% DMSO was added to each well. Data was compared to the effect of 2% DMSO. All compounds were tested in duplicate. Cells were incubated with the test compounds for 72 hrs before reading the assay. Then processing and calculation were performed according to manufacturer's directions for Cell Titer Glo Assay (Promega, Madison, Wis.).

[2] = in vitro; conditions: human, H727 cells
Method: as §1

[3] = test system: Chromogranin A; test: Western analysis of chromogranin A, BON-raf cells treated with estradiol; type: cell-based, human
Method: Usually, carcinoid tumors secrete high levels of both chromogranin A and serotonin due to disregulated hormone production. Similarly, BON cells treated with control or estradiol, and BON-raf cells treated with control had high levels of the NE marker chromogranin A as determined by Western analysis. […] In addition, BON and BON-raf cells were tested for serotonin secretion by ELISA after treatment with control or estradiol.
Cell culture. Human pulmonary carcinoid cells (NCI-H727) were obtained from American Type Culture Collection (Manassas, Va.) and human pancreatic carcinoid tumor cells, BON a generous gift of Drs. Evers and Townsend (Parekh et al., 1994), were maintained in RPMI 1640 and D-MEM-F12 media (Life Technologies, Rockville, Md.) respectively supplemented with 10% Fetal Bovine Serum (Sigma, St. Louis, Mo.), 100 IU/ml penicillin and 100 μg/ml streptomycin (Life Technologies) in a humidified atmosphere of 5% CO2 in air at 37° C. The maintenance of BON-raf cells and the activation of Raf-1 were followed as described previously (Sippel et al., 2003; Sippel and Chen, 2002; McMahon, 2001).
Western blot analysis. Cellular extracts were prepared and quantified by BCA protein assay kit (Pierce, Rockford, Ill.) as previously described (Sippel et al., 2003). 30-50 μg of denatured proteins from each sample underwent electrophoresis on a SDS-polyacrylamide gel and transferred to a nitrocellulose membranes (Schleicher and Schuell, Keene, N.H.). Membranes were blocked for 1 hr in milk solution (1×PBS, 5% non-fat dry milk, 0.05% Tween-20) and then incubated at 4° C. overnight with primary antibodies. The following primary antibody dilutions were used: phospho-ERK 1/2 (1:1,000); phospho-MEK (1:1,000); phospho-Raf-1 (Serine338) (1:1,000); p21 and p18, (1:1,000); (Cell Signal Technology, Beverly, Mass.), Chromogranin A (1:2,000; Zymed Laboratories, San Francisco, Calif.); MASH-1 (1:1000, BD Pharmingen) and G3PDH (1:10,000; Trevigen, Gaithersburg, Md.). After primary antibody incubation, membranes were washed 3×5 min in PBS-T wash buffer (1×PBS, 0.05% Tween 20). […]

[4] = test system: c-Raf as well as MEK and ERK; conditions: human monocytic THP-1 cells; cited from earlier work

- IC50 at 72 h [1]: 1400 nM
- IC50 at 72 h [2]: 1100 nM
SMILES: COc1cccc2c1C(=O)c1c(O)c3c(c(O)c1C2=O)C[C@@](O)(C(=O)CO)C[C@@H]3O[C@H]1C[C@H](N)[C@H](O)[C@H](C)O1 [Doxorubicin]

SMILES: C[C@]12CC[C@@H]3c4ccc(O)cc4CC[C@H]3[C@@H]1CC[C@@H]2O [Estradiol]
- reduction of chromogranin A levels ([3]; 2 days): 31%
- reduction of chromogranin A levels ([3]; 4 days): 68%
- reduction of chromogranin A levels ([3]; 6 days): 50%

SMILES: COc1nccc(-c2c(-c3ccc(F)cc3)ncn2C2CCC(O)CC2)n1 (stereo not drawn) [SB239063]
- activation of c-Raf, MEK and ERK [4]: activates c-Raf as well as MEK and ERK
